According to PubChem BioAssay (NCI):
Several values for one entry are separate records, joined by “and”; a condition that tells them apart may be missing. Identical values can stand only once.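 Tested at 5 concentrations; 48 h exposure; 96-well plates; endpoints linearly interpolated, else capped at highest concentration. The concentration for 50% growth inhibition is given as GI50. TGI: total growth inhibition.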

What was measured:
Assay in all cases: NCI tumour cell line growth inhibition, 48 h
[1] = tested on: 786-0 renal
[2] = tested on: HL-60(TB) leukemia
[3] = tested on: SF-539 CNS
[4] = tested on: UACC-257 melanoma
[5] = tested on: DMS 273 small cell lung
[6] = tested on: OVCAR-5 ovarian
[7] = tested on: NCI-H226 lung
[8] = tested on: KM20L2 colon
[9] = tested on: SR leukemia
[10] = tested on: HT29 colon

CCC(C)(C)C(=O)O[C@H]1C[C@@H](C)C=C2C=C[C@H](C)[C@H](CC[C@@H]3C[C@@H](O)CC(=O)O3)[C@H]21
GI50 [1]: 3.13 µM | TGI [1]: 11.2 µM and > 30 µM | GI50 [2]: 6.02 µM | TGI [2]: 20.8 µM and > 30 µM | GI50 [3]: 11.3 µM | TGI [3]: 24.8 µM and > 30 µM | GI50 [4]: 10.8 µM | TGI [4]: 25 µM and > 30 µM | TGI [5]: > 30 µM | GI50 [6]: 9.19 µM | TGI [6]: 22.9 µM | GI50 [7]: 2320 nM | TGI [7]: 9.27 µM | TGI [8]: > 30 µM | GI50 [9]: 1720 nM | TGI [9]: 13.1 µM and > 30 µM | TGI [10]: 20.2 µM and 21.3 µM

COC(=O)NC1C(C)OC(OC2C/C=C(/C)C3C=CC4C(OC5CC(OC6CC(O)C(OC7CC(O)C(OC)C(C)O7)C(C)O6)C(O)C(C)O5)C(C)CC(C)C4C3(C)/C(O)=C3\C(=O)OC4(CC(C)C(CO)=CC4/C=C\2C)C3=O)CC1(C)[N+](=O)[O-] (stereo not given)
GI50 [1]: 16.8 µM | TGI [1]: 21.9 µM and 32.3 µM | GI50 [2]: 7.94 µM | TGI [2]: 21.3 µM and 24.2 µM | GI50 [3]: 11.6 µM | TGI [3]: 24.9 µM and 37.7 µM | GI50 [4]: 8.28 µM | TGI [4]: 16.4 µM and 29.4 µM | TGI [5]: 28.9 µM | GI50 [6]: 13.4 µM | TGI [6]: 30.7 µM and 33.7 µM | GI50 [7]: 10000 nM | TGI [7]: 22.3 µM and 31.6 µM | TGI [8]: 34 µM | GI50 [9]: 23200 nM | TGI [9]: 50 µM and > 100 µM | GI50 [10]: 8.34 µM | TGI [10]: 15.9 µM and 35.9 µM

COc1ccc(C(=O)C(c2ccc(OC)cc2)C2(O)C(=O)Nc3ccccc32)cc1 (stereo not given)
TGI [1]: > 100 µM | TGI [2]: > 100 µM | TGI [3]: > 100 µM | TGI [4]: > 100 µM | TGI [5]: > 100 µM | TGI [7]: > 100 µM | TGI [8]: > 100 µM | TGI [9]: > 100 µM | TGI [10]: > 100 µM

Cc1cc(O)cc2oc(=O)c3c(O)cc(O)cc3c12
TGI [1]: > 100 µM | TGI [2]: 46.5 µM | TGI [3]: 49.2 µM | TGI [4]: > 100 µM | TGI [5]: 58.2 µM | TGI [6]: > 100 µM | TGI [7]: 91.8 µM | TGI [8]: > 100 µM | TGI [9]: > 100 µM | TGI [10]: > 100 µM

[O-]c1c2c(nn1-c1ccccc1)c1ccccc1c[n+]2Cc1ccccc1
TGI [1]: > 100 µM | TGI [2]: > 100 µM | TGI [3]: > 100 µM | TGI [4]: > 100 µM | TGI [5]: > 100 µM | TGI [6]: > 100 µM | TGI [7]: > 100 µM | TGI [8]: > 100 µM | TGI [9]: > 100 µM | TGI [10]: > 100 µM

CCCCCCCCCCCCCC(=O)O[C@H]1CC[C@H](NC(=O)[C@H](OC)[C@H](O)[C@@H](O)[C@H](O)/C=C/C(C)C)C(=O)NC1
TGI [1]: 0.928 µM | TGI [3]: 22 µM and 17.6 µM | TGI [4]: 27.2 µM and 20.4 µM | GI50 [5]: < 1 nM | TGI [5]: 0.0303 µM | TGI [6]: 51.2 µM and > 100 µM | GI50 [7]: 2.06 nM | TGI [7]: 4.29 µM | GI50 [8]: 45.3 nM | TGI [8]: 8.34 µM | GI50 [9]: < 1 nM | TGI [9]: 9.3 µM | TGI [10]: 7.29 µM and 12.7 µM

O=S1c2ccccc2N=C(c2ccc3ccccc3c2)CC1C1=CC=CCC1 (stereo not given)
TGI [1]: 29.8 µM | TGI [2]: 36.8 µM | TGI [3]: 45.3 µM | TGI [4]: 34.8 µM | TGI [5]: 41 µM | TGI [6]: 40.6 µM | TGI [7]: 43.9 µM | TGI [8]: 37.2 µM | TGI [10]: 31.4 µM

Cc1cc(NS(=O)(=O)c2ccc(N=Nc3cc(N=Nc4ccc(S(=O)(=O)Nc5cc(C)nc(C)n5)cc4)c4c(NC(=O)C(Cl)Cl)cccc4c3OC(=O)C(Cl)Cl)cc2)nc(C)n1 (tested in a mixture with another compound)
TGI [1]: 35.9 µM | TGI [2]: 52.4 µM | TGI [3]: 42.8 µM | TGI [4]: 70.2 µM | TGI [5]: 83.9 µM | TGI [6]: 30.6 µM | TGI [7]: 44.9 µM | TGI [8]: 60.8 µM | TGI [9]: 94.8 µM | TGI [10]: 46 µM

CCOC(=O)C12CCCC1(O)N(NC(=O)c1ccccc1)C(C)=C2C(=O)OC (stereo not given)
TGI [1]: > 100 µM | TGI [2]: > 100 µM | TGI [3]: > 100 µM | TGI [4]: > 100 µM | TGI [5]: > 100 µM | TGI [6]: > 100 µM | TGI [7]: > 100 µM | TGI [8]: > 100 µM | TGI [10]: > 100 µM

COC(=O)C1=C2CCC(=O)[C@@]2(C)C(OC(C)=O)C=CC1 (stereo not given in full)
TGI [1]: > 100 µM | TGI [2]: > 100 µM | TGI [3]: > 100 µM | TGI [4]: > 100 µM | TGI [5]: > 100 µM | TGI [6]: > 100 µM | TGI [7]: > 100 µM | TGI [8]: > 100 µM | TGI [10]: > 100 µM

CC(=O)OC(/C=C1/C=CC(=O)O1)COC(=O)c1ccccc1 (stereo not given)
TGI [1]: > 31.2 µM | TGI [2]: > 31.2 µM | TGI [3]: > 31.2 µM | TGI [4]: > 31.2 µM | TGI [5]: > 31.2 µM | TGI [6]: > 31.2 µM | TGI [7]: > 31.2 µM | TGI [8]: > 31.2 µM | TGI [10]: > 31.2 µM

Cc1ccc(NC(=O)CCC(CC(=O)C(C)(C)C)=NNC(=O)C(=O)NN)cc1C
TGI [1]: > 100 µM | TGI [2]: > 100 µM | TGI [3]: > 100 µM | TGI [4]: > 100 µM | TGI [5]: > 100 µM | TGI [6]: > 100 µM | TGI [7]: > 100 µM | TGI [8]: > 100 µM | TGI [10]: > 100 µM

COC(=O)/C=C1/CCC2[C@@H](C(=O)CC3[C@]2(C)CCC[C@@]3(C)C(=O)OC)C1C (stereo not given in full)
TGI [1]: 36 µM | TGI [2]: 7.81 µM | TGI [3]: 28.5 µM | TGI [4]: 24.7 µM | TGI [5]: 29.8 µM | TGI [6]: 39.4 µM | TGI [7]: 46.1 µM | TGI [8]: 29.5 µM | TGI [10]: 20.2 µM

O=S(=O)(/C=C/c1ccc(Cl)cc1Cl)Cc1ccccc1CS(=O)(=O)/C=C/c1ccc(Cl)cc1Cl
TGI [1]: > 100 µM | TGI [3]: > 100 µM | TGI [4]: > 100 µM | TGI [5]: > 100 µM | TGI [6]: > 100 µM | TGI [7]: > 100 µM | TGI [8]: > 100 µM | TGI [9]: > 100 µM | TGI [10]: > 100 µM
